Reference: patent US6830885B1, “Nucleic acid molecule, method and kit for selecting a nucleic acid having a desired feature” (priority 2000, dated 2004)
Read-outs that look alike come from different tables or passages of the source.

Legend:
Sindbis viral particles = test: Virus production from BHK-21 cells infected with VB222-derived Sindbis viral particles under drug treatment; format: cell-based; details: multiplicity of infection 0.05, viral particles collected 6 hours later
Procedure: The viral genome was transcribed from plasmid VB222. The exogenous nucleic acid encodes GFP to facilitate detection of transfected and/or infected cells. BHK-21 cells were transfected with said viral genome and viral particles were collected 34 hours later. These viral particles were tittered by standard plaque assay and used to infect BHK-21 cells at a multiplicity of infection of 0.05. The medium was changed one hour post-infection. Drugs were added one hour post-infection at a concentration of 200 nM (okadaic acid) or 30 μg/ml (cerulenin) and viral particles were collected 6 hours later. […] Treatment with the drug could be maintained while propagating the viral particles, thereby further decreasing the number of viral particles produced from viral genomes expressing an exogenous nucleic acid encoding a peptide or protein that is not involved in drug-resistance.

[1] = tested on: Sindbis-infected BHK-21 cells; details: cited from earlier work

C/C=C/C/C=C/CCC(=O)[C@H]1O[C@H]1C(N)=O [cerulenin]
decrease in virus production (Sindbis viral particles; cerulenin 30 μg/ml added one hour post-infection): 39 fold | production of viral particles ([1]; 30 μg/ml): impairs production of viral particles

C=C1[C@@H](O)[C@@H]2O[C@]3(CC[C@H](/C=C/[C@@H](C)[C@@H]4CC(C)=C[C@@]5(O[C@H](C[C@@](C)(O)C(=O)O)CC[C@H]5O)O4)O3)CC[C@H]2O[C@@H]1[C@@H](O)C[C@H](C)[C@H]1O[C@@]2(CCCCO2)CC[C@H]1C [okadaic acid]
decrease in virus production (Sindbis viral particles; okadaic acid 200 nM added one hour post-infection): 13 fold | production of viral particles ([1]; 200 nM): impairs production of viral particles
